Key:
Test in all cases: relative viability (nuclei count vs DMSO), 5 days (fraction); higher = more cells survive
RU-SKI 43 + Bortezomib = compound: CC[C@@H](C)CNCC(=O)N1CCC2=C([C@@H]1COC3=CC=CC(=C3)C)C=CS2 [RU-SKI 43] + CC(C)C[C@H](NC(=O)[C@H](Cc1ccccc1)NC(=O)c1cnccn1)B(O)O [Bortezomib] (partner 0.002 µM)
In short: (§1)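 Relative viability divides the nuclei count in treated wells by that in vehicle wells. Lung cancer cell lines were seeded in 1536-well plates, dosed by pin tool the next day, and fixed and stained after 5 days in one step with final 0.05% Triton X-100, 1% formaldehyde and 1 ug/ml Hoechst. Dosing was a single drug or a fixed anchor-drug dose plus five library-drug doses (not always all listed) in √10 steps, and values are medians of duplicate plates imaged at 4×.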

RU-SKI 43 + Crizotinib = compound: CC[C@@H](C)CNCC(=O)N1CCC2=C([C@@H]1COC3=CC=CC(=C3)C)C=CS2 [RU-SKI 43] + C[C@@H](Oc1cc(-c2cnn(C3CCNCC3)c2)cnc1N)c1c(Cl)ccc(F)c1Cl [Crizotinib] (partner 1 µM)
In short: as §1

MK-8033 + Navitoclax = compound: Cn1cc(-c2cnc3ccc4ccc(CS(=O)(=O)NCc5ccccn5)cc4c(=O)c3c2)cn1 [MK-8033] + CC1(C)CCC(c2ccc(Cl)cc2)=C(CN2CCN(c3ccc(C(=O)NS(=O)(=O)c4ccc(N[C@H](CCN5CCOCC5)CSc5ccccc5)c(S(=O)(=O)C(F)(F)F)c4)cc3)CC2)C1 [Navitoclax] (partner 0.5 µM)
In short: as §1

MK-8033 + Phenformin = compound: Cn1cc(-c2cnc3ccc4ccc(CS(=O)(=O)NCc5ccccn5)cc4c(=O)c3c2)cn1 [MK-8033] + N=C(N)NC(=N)NCCc1ccccc1 [Phenformin] (partner 250 µM)
In short: as §1

UMC-11
relative viability (RU-SKI 43 + Bortezomib; first compound 0.1 µM): 0.731
relative viability (RU-SKI 43 + Bortezomib; first compound 0.3162 µM): 1.1
relative viability (RU-SKI 43 + Bortezomib; first compound 1 µM): 1.05
relative viability (RU-SKI 43 + Bortezomib; first compound 3.162 µM): 0.666
relative viability (RU-SKI 43 + Bortezomib; first compound 10 µM): 0.927
relative viability (RU-SKI 43 + Crizotinib; first compound 0.1 µM): 0.763
relative viability (RU-SKI 43 + Crizotinib; first compound 0.3162 µM): 0.707
relative viability (RU-SKI 43 + Crizotinib; first compound 1 µM): 0.664
relative viability (RU-SKI 43 + Crizotinib; first compound 3.162 µM): 0.654
relative viability (RU-SKI 43 + Crizotinib; first compound 10 µM): 0.399
relative viability (MK-8033 + Navitoclax; first compound 0.02 µM): 0.306
relative viability (MK-8033 + Navitoclax; first compound 0.06325 µM): 0.265
relative viability (MK-8033 + Navitoclax; first compound 0.2 µM): 0.287
relative viability (MK-8033 + Navitoclax; first compound 0.6325 µM): 0.28
relative viability (MK-8033 + Navitoclax; first compound 2 µM): 0.332
relative viability (MK-8033 + Phenformin; first compound 0.02 µM): 0.323
relative viability (MK-8033 + Phenformin; first compound 0.06325 µM): 0.258
relative viability (MK-8033 + Phenformin; first compound 0.2 µM): 0.312
relative viability (MK-8033 + Phenformin; first compound 2 µM): 0.266
